Data taken from patent US12594278B2, “Method for treatment of muscular dystrophy” (CHILDREN'S NATIONAL MEDICAL CENTER, priority 2019, dated 2026).

Key:
FAP = details: stated without data; cited from earlier work
A2-B6A/J mice = assay: Notexin injury of A2-B6A/J TA muscle with or without recombinant AnxA2; type: in vivo, mouse; details: 10 μg AnxA2 at injury site, 28 d after injury, vs notexin alone
Procedure: To test if this was also true in vivo, the AnxA2-naïve A2-B6A/J mice were used for receiving notexin to injure their muscle with or without the addition of 10 μg purified AnxA2 at the site of injury. […] This provides direct evidence supporting that extracellular AnxA2 is not only necessary, but also sufficient for driving FAP-mediated in vivo adipogenic conversion of the regenerating dysferlinopathic muscles.
Microscopy and Image Analysis. Microscopy was performed using an Olympus BX61 VS120-S5 Virtual Slide Scanning System with UPlanSApo 40×/0.95 objective, Olympus XM10 monochrome camera or Allied vision Pike F-505C color camera, and Olympus VS-ASW FL 2.7 imaging software. […] Perilipin-1 quantification was performed by thresholding the image to exclude non-specific staining and then calculating the area of each lipid deposit encircled by perlipin-1 (excluding those in the epi- or perimysium) using MetaMorph software (Molecular Devices). The total area encircled by perilipin-1 was calculated for all lipid deposits across the muscle and expressed relative to the total cross-sectional area. PDGFRα and AnxA2 positive area was calculated using CellSens software (Olympus) by thresholding to remove non-specific staining and calculating the total positive area (again, excluding any epi- or perimysial staining) relative to the entire muscle cross-section. […]

B6A/J FAPs = assay: Spontaneous adipogenesis of purified B6A/J FAPs treated with recombinant AnxA2 (Oil Red O); type: cell-based, mouse; details: 100 nM AnxA2 from day 3; 24Mo B6A/J FAPs; vs AnxA2 untreated FAPs
Text: The contribution of AnxA2 to the adipogenic fate of the FAPs was next examined in dysferlin-deficient muscle. For this FAPs were isolated from 12Mo WT, B6A/J and A2-B6A/J muscle and their spontaneous adipogenesis in vitro was quantified. […] The spontaneous adipogenesis of B6A/J FAPs indicates these cells are committed to adipogenesis prior to extraction, which can be caused by the pro-adipogenic niche in dysferlinopathic muscle. The lack of spontaneous adipogenesis in A2-B6A/J FAPs can be caused by the lack of a pro-adipogenic niche or restricted adipogenic potential of the FAPs in the absence of AnxA2 (FIG. 8). As adipogenic replacement of muscle is enhanced with age, the niche (PDGFRα^−) and FAP (PDGFRα^+) cells from 24Mo B6A/J and A2-B6A/J muscles were isolated to allow for the niche cells to reach their maximal potential. These FAP and niche cells were then mixed in a 1:1 ratio (20,000 cells total; 10,000 FAPs) from the same or different genetic background and their spontaneous adipogenesis was quantified as the extent of oil red staining/20,000 FAPs. […] To directly test if it is the AnxA2 or another factor secreted by the niche cells that influences FAP adipogenesis, a purified population of B6A/J FAPs ([…]) were treated with 100 nM AnxA2 and their spontaneous adipogenesis was quantified as the extent of oil red staining/20,000 FAPs. […]

| Compound | FAP adipogenesis (FAP) | accumulation of PDGFRα FAPs in TA after notexin injury (A2-B6A/J mice) | perilipin-1 labeled adipogenic deposits in TA after notexin injury (A2-B6A/J mice) | increase in spontaneous adipogenic differentiation of dysferlinopathic FAPs (oil red staining/20,000 FAPs) (B6A/J FAPs) [fold] |
| --- | --- | --- | --- | --- |
| CC(CN1c2ccccc2Sc2ccccc21)N(C)C (stereo not shown) [promethazine] | inhibits FAP adipogenesis |  |  |  |
| AnxA2: recombinant AnxA2 (RayBiotech, #230-30023), membrane repair protein Annexin A2 |  | increased accumulation | increased accumulation | > 2 |
